The values below are quoted from earlier work in US20050165041A1, “Combination for the treatment of airway disorders” (Altana Pharma AG, priority 2002, published 2005).

For data set [1] the following is noted: combination with theophyllin.
For data set [2] the following is noted: 8-week double-blind, placebo-controlled crossover study; sole medication.
The subject of another data set is HCl-induced lung lesions. To be noted: rats.

On to `COc1ccnc(C[S+]([O-])c2nc3ccc(OC(F)F)cc3[nH]2)c1OC` (stereo not shown) [pantoprazole, 5-difluoromethoxy-2-[(3,4-dimethoxy-2-pyridinyl)methylsulphinyl]-1H-benzimidazole], for which the “pharmacokinetic interaction with theophyllin” value in data set [1] is given as “lack of pharmacokinetic interaction”.

As for `COc1ccc2[nH]c([S+]([O-])Cc3ncc(C)c(OC)c3C)nc2c1` (stereo not shown) [omeprazole, 5-methoxy-2-[(4-methoxy-3,5-dimethyl-2-pyridinyl)methylsulphinyl]-1H-benzimidazole], the nocturnal asthma symptoms result in data set [2] is reported as “reduction in nocturnal asthma symptoms”. The “effect on HCl-induced lung lesions” value in the data set on HCl-induced lung lesions is recorded as “beneficial effect”.

For `Cc1c(OCC(F)(F)F)ccnc1C[S+]([O-])c1nc2ccccc2[nH]1` (stereo not shown) [lansoprazole], the “pharmacokinetic interaction with theophyllin” value in data set [1] is “lack of pharmacokinetic interaction”.
